Measured values reported in patent US8956589B2, “Imaging diagnostic agent and extracorporeal diagnostic agent for incurable neurological diseases” (Shiga University of Medical Science, priority 2009, dated 2015).

Assays:
[1] = target: amyloid β peptide aggregates (1-40) (Homo sapiens (Human), UniProt P05067); type: binding; conditions: for IC50: aggregates 1 μM, thioflavin-T 3 μM, compound 0.02 to 20 μM, 30 minutes at 23° C., read-out: Amyloid binding property (IC50); for binding to amyloid β peptide aggregates (in words): thioflavin-T fluorescence inhibition
Experimental: The binding capacity of the compounds to an amyloid β peptide aggregate was quantitatively measured by a thioflavin-T fluorescence inhibition test. […] The resultant solution was cause to react for 30 minutes at 23° C. with the light shielded. Then, the fluorescence of thioflavin-T was measured under a condition of Ex=440 nm, Em=490 nm, Cutoff filter=475 nm. The IC50 values were calculated by using an analysis software, GraphPad PRISM Ver.5 (GraphPad Software, Inc.).

[2] = target: amyloid β peptide aggregates (Homo sapiens (Human), UniProt P05067); assay: Binding to and release from precipitated amyloid β peptide aggregates (absorbance of supernatant); conditions: compound 2 μg/mL in phosphate buffer, 1 hour reaction
Experimental: Each of compound 23, compound 1, and compound 24 is dissolved at a concentration of 2 μg/mL, in a phosphate buffer, and then amyloid β peptide aggregates are added to each solution, and the resultant solution is caused to react for 1 hour. Then, the solution is centrifuged for 10 minutes at 6,000 rpm, to separate the amyloid β peptide aggregates. A supernatant was removed, and an absorbance measurement was performed to measure the quantity of the compound that had not bound to the amyloid peptide aggregates and that were contained in the supernatant. The obtained quantity was subtracted from the original quantity of the compound, whereby the quantity of the compound that had bound to the amyloid β peptide aggregates was calculated.
Next, the precipitated amyloid β peptide aggregates were washed, a buffer was added thereto, and the quantity of the compound that got released was measured. Then, the rate of the compound that had bound to amyloid β peptide aggregates and then was eluted into the buffer was calculated using the original quantity of the compound as 100%.

Sequence of amyloid β peptide aggregates (1-40) (P05067 672-711): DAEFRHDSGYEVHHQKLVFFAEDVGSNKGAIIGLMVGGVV
Sequence of amyloid β peptide aggregates (P05067 672-711): as above

Row | melting point | IC50 ([1]; pH 7.4) | solubility remark in amyloid binding test ([1]; pH 7.4) | binding rate to amyloid β peptide aggregates [2] | binding to amyloid β peptide aggregates (in words) [1] | Compound
1 | 112 to 114 °C | 700 nM | – | – | – | O=C(/C=C/c1ccc(O)c(OC(F)(F)F)c1)C(CCOCCO)C(=O)/C=C/c1ccc(O)c(OC(F)(F)F)c1 [Compound 22, 1,7-bis(4′-hydroxy-3′-trifluoromethoxyphenyl)-4-(2′-hydroxyethoxyethyl)-1,6-heptadiene-3,5-dione]
2 | 170 to 171 °C | – | – | – | – | COC(=O)CCC(C(=O)/C=C/c1ccc(OC)c(F)c1)C(=O)/C=C/c1ccc(OC)c(F)c1 [Compound 3]
3 | 192 to 194 °C | 5800 nM | hardly soluble | – | – | CNc1ccc(/C=C/C(=O)CC(=O)/C=C/c2ccc(NC)c(C(F)(F)F)c2)cc1C(F)(F)F [Compound 28]
4 | 200 °C | 130 nM | – | – | – | COc1cc(/C=C/C(=O)CC(=O)/C=C/c2ccc(O)c(C(F)(F)F)c2)ccc1O [Compound 27]
5 | 178 to 179 °C | 320 nM | – | – | – | CC(C(=O)/C=C/c1ccc(O)c(OC(F)(F)F)c1)C(=O)/C=C/c1ccc(O)c(OC(F)(F)F)c1 [Compound 16]
6 | > 200 °C | – | – | – | – | COc1ccc(/C=C/C(=O)C(CCC(=O)[O-])C(=O)/C=C/c2ccc(OC)c(F)c2)cc1F.[Na+] [Compound 12]
7 | 179 to 180 °C | 140 nM | – | – | – | CCOC(=O)C(C(=O)/C=C/c1ccc(O)c(OC(F)(F)F)c1)C(=O)/C=C/c1ccc(O)c(OC(F)(F)F)c1 [Compound 7]
8 | 147 to 148 °C | 310 nM | – | – | – | COC(=O)CCCC(C(=O)/C=C/c1ccc(O)c(OC(F)(F)F)c1)C(=O)/C=C/c1ccc(O)c(OC(F)(F)F)c1 [Compound 6]
9 | 178 to 179 °C | – | – | – | – | COC(=O)CCC(C(=O)/C=C/c1cc(F)c(O)c(F)c1)C(=O)/C=C/c1cc(F)c(O)c(F)c1 [Compound 11]
10 | – | 500 nM | – | – | – | COCOCCCC(C(=O)/C=C/c1ccc(O)c(OC(F)(F)F)c1)C(=O)/C=C/c1ccc(O)c(OC(F)(F)F)c1 [Compound 20]
11 | 191 °C | – | – | – | – | CC(C)OC(=O)CCC(C(=O)/C=C/c1ccc(O)c(OC(F)(F)F)c1)C(=O)/C=C/c1ccc(O)c(OC(F)(F)F)c1 [Compound 10]
12 | 172 to 173 °C | 210 nM | – | 85% | strongly bound | O=C(/C=C/c1ccc(O)c(OC(F)(F)F)c1)CC(=O)/C=C/c1ccc(O)c(OC(F)(F)F)c1 [Compound 23]
13 | 187 to 189 °C | 100 nM | – | – | – | COc1cc(/C=C/C(=O)CC(=O)/C=C/c2cncc(C(F)(F)F)c2)ccc1O [Compound 29]
14 | 140 to 141 °C | 520 nM | – | – | – | COC(=O)CC(C(=O)/C=C/c1ccc(O)c(OC(F)(F)F)c1)C(=O)/C=C/c1ccc(O)c(OC(F)(F)F)c1 [Compound 5]
15 | 175 °C | 650 nM | – | – | – | CC(C)(C)OC(=O)CCC(C(=O)/C=C/c1ccc(O)c(OC(F)(F)F)c1)C(=O)/C=C/c1ccc(O)c(OC(F)(F)F)c1 [Compound 9]
16 | 192 to 193 °C | 500 nM | – | – | – | CN(C)C(=O)CCC(C(=O)/C=C/c1ccc(O)c(OC(F)(F)F)c1)C(=O)/C=C/c1ccc(O)c(OC(F)(F)F)c1 [Compound 21]
17 | – | 1300 nM | – | – | – | O=C(O)CCC(C(=O)/C=C/c1ccc(O)c(OC(F)(F)F)c1)C(=O)/C=C/c1ccc(O)c(OC(F)(F)F)c1 [Compound 2, 1,7-bis(4′-hydroxy-3′-trifluoromethoxyphenyl)-4-carboxylethyl-1,6-heptadiene-3,5-dione]
18 | 183 °C | 360 nM | – | – | – | COC(=O)CCC(C(=O)/C=C/c1ccc(O)c(C(F)(F)F)c1)C(=O)/C=C/c1ccc(O)c(C(F)(F)F)c1 [Compound 14]
19 | 171 to 172 °C | – | – | – | – | COc1ccc(/C=C/C(=O)C(CCC(=O)O)C(=O)/C=C/c2ccc(OC)c(F)c2)cc1F [Compound 4]
20 | 190 to 192 °C (dec.) | 310 nM | – | – | – | COc1cc(/C=C/C(=O)CC(=O)/C=C/c2ccc(OCC(=O)O)c(OC)c2)ccc1O [Compound 26]
21 | 134 to 135 °C | 300 nM | – | – | – | N#CCCC(C(=O)/C=C/c1ccc(O)c(OC(F)(F)F)c1)C(=O)/C=C/c1ccc(O)c(OC(F)(F)F)c1 [Compound 15]
22 | 141 °C | 650 nM | – | – | – | COC(=O)CCC(C(=O)/C=C/c1ccc(O)c(OC(F)(F)F)c1)C(=O)/C=C/c1ccco1 (centres unmarked) [Compound 30]
23 | 124 to 126 °C | – | – | – | – | COC(=O)CCC(C(=O)/C=C/c1ccc(O)c(OC(F)(F)F)c1)C(=O)/C=C/c1ccc(OC(C)=O)c(OC(F)(F)F)c1 (centres unmarked) [Compound 18]
24 | – | > 15000 nM | – | 27% | scarcely bound | CC(C)(C(=O)/C=C/c1ccc(O)c(OC(F)(F)F)c1)C(=O)/C=C/c1ccc(O)c(OC(F)(F)F)c1 [Compound 24, reference compound]
25 | 88 to 90 °C | 140 nM | – | – | – | COC(=O)COc1ccc(/C=C/C(=O)CC(=O)/C=C/c2ccc(O)c(OC)c2)cc1OC [Compound 25]
26 | 155 to 156 °C | 380 nM | – | – | – | CCOC(=O)CCC(C(=O)/C=C/c1ccc(O)c(OC(F)(F)F)c1)C(=O)/C=C/c1ccc(O)c(OC(F)(F)F)c1 [Compound 8]

Row | Compound | melting point | IC50 ([1]; pH 7.4) | solubility remark in amyloid binding test ([1]; pH 7.4) | binding rate to amyloid β peptide aggregates [2] | binding to amyloid β peptide aggregates (in words) [1]
27 | CC(=O)OCCCC(C(=O)/C=C/c1ccc(O)c(OC(F)(F)F)c1)C(=O)/C=C/c1ccc(O)c(OC(F)(F)F)c1 [Compound 13, 1,7-bis(4′-hydroxy-3′-trifluoromethoxyphenyl)-4-acetoxypropyl-1,6-heptadiene-3,5-dione] | 130 to 131 °C | – | – | – | –
28 | COC(=O)CCC(C(=O)C=Cc1ccc(OC(C)=O)c(OC(F)(F)F)c1)C(=O)C=Cc1ccc(OC(C)=O)c(OC(F)(F)F)c1 (centres unmarked) [Compound 17, 1,7-bis(4′-acetoxy-3′-trifluoromethoxyphenyl)-4-methoxycarbonylethyl-1,6-heptadiene-3,5-dione] | 149 to 150 °C | – | – | – | –
